According to US4283394A, “Cytotoxic nucleoside-corticosteroid phosphodiesters” (priority 1979, dated 1981):
Like-named read-outs stand apart in the source and are kept apart here.

What was measured:
[1] = test system: i.p. implanted L1210 leukemia; assay: Comparison of conjugates and ara-C plus steroid combinations, i.p. implanted L1210 leukemic mice; format: in vivo
Experimental: Each mouse received 1×10^6 cells intraperitoneally. Doses were administered i.p. once daily to groups of 8 mice (avg. wt. 20 g) for 5 consecutive days beginning 24 hours after tumor implantation. In case of the combination, ara-C and the steroid were given at the same molar concentrations present in the conjugates. Mean survival days were calculated by the equation appearing in the NCI protocol; T/C ratios are reported in percent, i.e (treated/control)×100.

[2] = test system: i.p. implanted L-1210 leukemia; assay: Antitumor activity against i.p. implanted L-1210 leukemia in mice; format: in vivo; conditions: for response vs control in vivo at 25 mg/kg / response vs control in vivo at 50 mg/kg / response vs control in vivo at 100 mg/kg: Mus musculus, L1210, ip; for response vs control in vivo at 50 mg/kg: read-out: Percent T/C (mean survival days treated/control × 100), 50 mg/kg/day × 5 i.p.; for response vs control in vivo at 100 mg/kg: read-out: Percent T/C (mean survival days treated/control × 100), 100 mg/kg/day × 5 i.p.
Experimental: The ascites cell form of L-1210 leukemia, grown in C3 D2 F1 /J female mice (supplied by Jackson Labs) were employed. The assay was performed according to National Cancer Institute (NCI) protocol 1.100 described by R. I. Gerau et al., Cancer Chemother. Rep. (Part 3) 3: (2): 7, 47 (1972) with a slight modification. Intraperitoneal implantation of 1×10^6 cells in 0.5-ml suspension to the control and the treated groups (each group comprised 8 C3 D2 F1 /J female mice, average wt 20 g) was carried out using donor mice (DBA/2Ha, supplied by Roswell Park Memorial Institute) bearing 3 day tumor growths. Compounds were dissolved in 0.9 percent NaCl and a 0.5 ml dose was administered intraperitoneally once daily. Treatment began 24 h after implantation and continued for 5 consecutive days. Control animals received a 0.5 ml injection of saline. Testing was followed as described in the NCI protocol and evaluated by recording the survival time according to the formula appearing in protocol 11.

[3] = test system: intracerebrally implanted L-1210; assay: Antitumor activity against intracerebrally (i.c.) implanted L-1210 in mice; format: in vivo; conditions: for Survivors on day 35: groups of 8 mice; for Percent T/C: values as of 35th day
Experimental: Effects of the conjugate on i.c. implanted L-1210 in mice were also studied. A mouse (C3 D2 F1 /J, female, avg. wt. 20 g) was anesthesized with diethyl ether, the right parietal scalp was washed with 70 percent ethanol, a 27 G 1/2 needle with a guard placed on the outside of the barrel 1.5 mm from the top of the bevel, was inserted through the skull and 1×10^5 cells in 0.05 ml suspension were inoculated into the mouse. The conjugate in 0.9 percent NaCl (0.5 ml) was administered intraperitoneally once daily. Treatment began 24 h after implantation and continued for 5 consecutive days. Control animals received a 0.5 ml injection of saline. Testing was followed as described in the NCI protocol and evaluated by recording the survival time according to the formula appearing in protocol 11.

[4] = test system: mouse leukemia L-1210 cells; assay: Antiproliferative activity in vitro, viability of L-1210 cells in culture; format: cell-based; conditions: for IC50: read-out: Concentration (μM) for 50 percent loss of viability at 72 hours (ED50)
Experimental: The antiproliferative activity of the conjugates, ara-C, ara-CMP and the steroids was determined by measuring their effects against mouse leukemia L-1210 cells in culture. The assay was performed in test tubes without agitation according to the procedure described by Hong et al. in J. Med. Chem. 16: 139 (1973). After 24, 48 and 72 h, viable cell counts were performed on the cultures which had been incubated with compounds in various concentrations and the concentration of each compound required to produce a 50 percent inhibition of growth (ED50) after 72 h was determined by interpolation using the method described by Tritsch et al. in Cancer Biochem. Biophys. 2: 87 (1977).

[5] = read-out: Percent T/C (mean survival days treated/control × 100), 25 mg/kg/day × 5 i.p.

C[C@]12C[C@H](O)[C@H]3[C@@H](CCC4=CC(=O)CC[C@@]43C)[C@@H]1CC[C@@H]2C(=O)COP(=O)(O)OC[C@H]1O[C@@H](n2ccc(N)nc2=O)[C@@H](O)[C@@H]1O [Corticosterone-p-ara-C]
Survival Days Mean (Treated) ([1]; 77.0 μmole/kg/day × 5): 26.50 days | Weight change on Day 8 (g/mouse) ([1]; 77.0 μmole/kg/day × 5): -0.71 g/mouse | response vs control in vivo at 77 µmol/kg ([1]; Mus musculus, L1210, ip, 77.0 μmole/kg/day × 5, read-out: % T/C): 342%

Nc1ccn([C@@H]2O[C@H](CO)[C@@H](O)[C@@H]2O)c(=O)n1 [Ara-C, 1-β-D-Arabinofuranosylcytosine, reference compound]
Mean Survival Days, Treated ([2]; 25 mg/kg/day × 5 i.p.): 11.00 days | Mean Survival Days, Treated ([2]; 50 mg/kg/day × 5 i.p.): 9.63 days | Percent T/C (mean survival days treated/control × 100) ([2]; 50 mg/kg/day × 5 i.p.): 110% | response vs control in vivo at 25 mg/kg [2, 5]: 128% | response vs control in vivo at 50 mg/kg [2]: 110% | Mean Survival Days ([3]; 25 mg (102.8 μmol)/kg/day × 5 i.p.): 13.75 days | Survivors on day 35 ([3]; 25 mg/kg/day × 5 i.p.): 0 | Percent T/C ([3]; 25 mg/kg/day × 5 i.p.): 152.8% | Percent T/C ([3]; 25 mg/kg/day × 5 i.p., listed as ara-C): 153% | weight lost by day 14 ([3]; ara-C treated mice): about 5 g | deaths of treated mice ([3]; ara-C treated mice, by day 14): all but one of them died | IC50 ([4]; Mus musculus, L1210, 72 h): 0.1 µM

Nc1ccn([C@@H]2O[C@H](COP(=O)(O)O)[C@@H](O)[C@@H]2O)c(=O)n1 [Ara-CMP, reference compound]
Mean Survival Days, Treated ([2]; 50 mg/kg/day × 5 i.p.): 9.13 days | Mean Survival Days, Treated ([2]; 100 mg/kg/day × 5 i.p.): 11.00 days | response vs control in vivo at 50 mg/kg [2]: 104% | response vs control in vivo at 100 mg/kg [2]: 122% | IC50 ([4]; Mus musculus, L1210, 72 h): 0.05 µM

C[C@]12CCC(=O)C=C1CC[C@@H]1[C@@H]2[C@@H](O)C[C@@]2(C)[C@H]1CC[C@]2(O)C(=O)COP(=O)(O)OC[C@H]1O[C@@H](n2ccc(N)nc2=O)[C@@H](O)[C@@H]1O [Cortisol-p-ara-C (V), 5'-(Cortisol-21-phosphoryl)-1-β-D-arabinofuranosylcytosine]
Mean Survival Days, Treated ([2]; 50 mg/kg/day × 5 i.p.): 24.75 days | Mean Survival Days, Treated ([2]; 100 mg/kg/day × 5 i.p.): 14.25 days | response vs control in vivo at 50 mg/kg [2]: 287% | response vs control in vivo at 100 mg/kg [2]: 154% | Mean Survival Days ([3]; 50 mg/kg/day × 5 i.p.): 20.50 days | body weight lost by day 11 ([3]; 50 mg/kg/day × 5 i.p.): about 4 g | weight gained over original weight (20 g) by day 20 ([3]; 50 mg/kg/day × 5 i.p.): about 1 g | Survivors on day 35 ([3]; 50 mg/kg/day × 5 i.p.): 2 | Percent T/C ([3]; 50 mg/kg/day × 5 i.p.): 227.8% | Percent T/C ([3]; 50 mg/kg/day × 5 i.p., listed as V): 228% | Survival Days Mean (Treated) ([1]; 75.0 μmole/kg/day × 5): 24.75 days | Weight change on Day 8 (g/mouse) ([1]; 75.0 μmole/kg/day × 5 (each, for combinations)): +0.09 g/mouse | response vs control in vivo at 75 µmol/kg ([1]; Mus musculus, L1210, ip, 75.0 μmole/kg/day × 5, read-out: % T/C): 287% | antiproliferative activity compared with ara-CMP and ara-C ([4]; 72 h): less active than both ara-CMP and ara-C | IC50 ([4]; Mus musculus, L1210, 72 h): 0.25 µM

C[C@]12C=CC(=O)C=C1CC[C@@H]1[C@@H]2C(=O)C[C@@]2(C)[C@H]1CC[C@]2(O)C(=O)CO [prednisone, 17α,21-dihydroxy-1,4-pregnadiene-3,11,20-trione, reference compound]
response vs control in vivo at 25 mg/kg ([2]; 25 mg/kg/day × 5 i.p., read-out: Percent T/C (mean survival days treated/control × 100)): 133%

C[C@]12CCC(=O)C=C1CC[C@@H]1[C@@H]2C(=O)C[C@@]2(C)[C@H]1CC[C@]2(O)C(=O)COP(=O)(O)OC[C@H]1O[C@@H](n2ccc(N)nc2=O)[C@@H](O)[C@@H]1O [Cortisone-p-ara-C (VI), 5'-(Cortisone-21-phosphoryl)-1-β-D-arabinofuranosylcytosine]
Mean Survival Days, Treated ([2]; 50 mg/kg/day × 5 i.p.): 20.14 days | response vs control in vivo at 50 mg/kg [2]: 224% | Survival Days Mean (Treated) ([1]; 75.1 μmole/kg/day × 5): 21.43 days | Weight change on Day 8 (g/mouse) ([1]; 75.1 μmole/kg/day × 5): -0.07 g/mouse | response vs control in vivo at 75.1 µmol/kg ([1]; Mus musculus, L1210, ip, 75.1 μmole/kg/day × 5, read-out: % T/C): 238% | antiproliferative activity compared with ara-CMP and ara-C ([4]; 72 h): activity comparable to ara-CMP | IC50 ([4]; Mus musculus, L1210, 72 h): 0.07 µM

C[C@]12C=CC(=O)C=C1CC[C@@H]1[C@@H]2[C@@H](O)C[C@@]2(C)[C@H]1CC[C@]2(O)C(=O)CO [Prednisolone, 11β,17α,21-trihydroxy-1,4-pregnadiene-3,20-dione, reference compound]
response vs control in vivo at 25 mg/kg [2, 5]: 133%

C[C@@H]1C[C@H]2[C@@H]3CCC4=CC(=O)C=C[C@]4(C)[C@@]3(F)[C@@H](O)C[C@]2(C)[C@@]1(O)C(=O)COP(=O)(O)OC[C@H]1O[C@@H](n2ccc(N)nc2=O)[C@@H](O)[C@@H]1O [DXM-p-ara-C (III), 5'-(Dexamethasone-21-phosphoryl)-1-β-D-arabinofuranosylcytosine]
toxicity ([2]; 50 mg (71.7 μmol)/kg/day): showed some toxicity | Mean Survival Days, Treated ([2]; 50 mg/kg/day × 5 i.p.): 13.50 days | Percent T/C (mean survival days treated/control × 100) ([2]; 50 mg/kg/day × 5 i.p.): 150% | response vs control in vivo at 50 mg/kg [2]: 150% | Survival Days Mean (Treated) ([1]; 36.0 μmole/kg/day × 5): 11.50 days | Weight change on Day 8 (g/mouse) ([1]; 36.0 μmole/kg/day × 5): -1.03 g/mouse | Survival Days Mean (Treated) ([1]; 71.7 μmole/kg/day × 5): 13.50 days | Weight change on Day 8 (g/mouse) ([1]; 71.7 μmole/kg/day × 5): -1.50 g/mouse | response vs control in vivo at 36 µmol/kg ([1]; Mus musculus, L1210, ip, 36.0 μmole/kg/day × 5, read-out: % T/C): 128% | response vs control in vivo at 71.7 µmol/kg ([1]; Mus musculus, L1210, ip, 71.7 μmole/kg/day × 5, read-out: % T/C): 150% | antiproliferative activity compared with ara-CMP and ara-C ([4]; 72 h): activity comparable to ara-CMP | IC50 ([4]; Mus musculus, L1210, 72 h): 0.08 µM

C[C@]12CC[C@H]3[C@@H](CCC4=CC(=O)CC[C@@]43C)[C@@H]1CC[C@@H]2C(=O)COP(=O)(O)OC[C@H]1O[C@@H](n2ccc(N)nc2=O)[C@@H](O)[C@@H]1O [DOC-p-ara-C]
Survival Days Mean (Treated) ([1]; 78.7 μmole/kg/day × 5): 21.38 days | Weight change on Day 8 (g/mouse) ([1]; 78.7 μmole/kg/day × 5): -0.94 g/mouse | response vs control in vivo at 78.7 µmol/kg ([1]; Mus musculus, L1210, ip, 78.7 μmole/kg/day × 5, read-out: % T/C): 238%

C[C@H]1C[C@@H]2[C@H]([C@@H](O)C[C@@]3(C)[C@H]2CC[C@]3(O)C(=O)COP(=O)(O)OC[C@H]2O[C@H](n3ccc(N)nc3=O)[C@@H](O)[C@@H]2O)[C@@]2(C)C=CC(=O)C=C12 [MePred-p-ara-C (IV), 5'-(6α-Methylprednisolone-21-phosphoryl)-1-α-D-arabinofuranosylcytosine]
% T/C ([1]; 74.0 μmole/kg/day × 5): 246.8% | Survival Days Mean (Treated) ([1]; 74.0 μmole/kg/day × 5): 19.13 days | Survival Days Range ([1]; 74.0 μmole/kg/day × 5): 14 to 24 days | Weight change on Day 8 (g/mouse) ([1]; 74.0 μmole/kg/day × 5): -1.08 g/mouse | antiproliferative activity compared with ara-CMP and ara-C ([4]; 72 h): activity comparable to ara-CMP | IC50 ([4]; 72 h): 0.05 µM

CC12CCC(=O)C=C1CCC1C3CCC(O)(C(=O)COP(=O)(O)OCC4OC(n5ccc(N)nc5=O)C(O)C4O)C3(C)CC(O)C12F (centres unmarked) [Fludrocortisone-p-ara-C]
Survival Days Mean (Treated) ([1]; 36.46 μmole/kg/day × 5): 14.30 days | Weight change on Day 8 (g/mouse) ([1]; 36.46 μmole/kg/day × 5): -1.09 g/mouse | response vs control in vivo at 36.46 µmol/kg ([1]; Mus musculus, L1210, ip, 36.46 μmole/kg/day × 5, read-out: % T/C): 159%
